Results published in US11427567B2, “Imidazolyl pyrimidinylamine compounds as CDK2 inhibitors” (Incyte Corporation, priority 2019, dated 2022).

Biological target: CDK2/Cyclin E1 (Homo sapiens (Human), UniProt P24941)
Assay: CDK2/Cyclin E1 HTRF enzyme activity assay (Example A)
Assay type: biochemical
Settings: 1 mM ATP
Description: Assays were conducted in white 384-well polystyrene plates in a final reaction volume of 8 μL. […] HTRF signals were read after 1 hour at room temperature on a PHERAstar FS plate reader (BMG Labtech). Data was analyzed with IDBS XLFit and GraphPad Prism 5.0 software using a three or four parameter dose response curve to determine IC50 for each compound.

Row | IC50 [nM] | Compound
1 | ≤ 50 | [2H]C([2H])([2H])NC(=O)c1ccc(-n2cnc(-c3nc(NC4CCN(S(C)(=O)=O)CC4)ncc3C(F)(F)F)c2)c(C)n1 [Example 131, 6-Methyl-N-(methyl-d)-5-(4-(2-((1-(methylsulfonyl)piperidin-4-yl)amino)-5-(trifluoromethyl)pyrimidin-4-yl)-1H-imidazol-1-yl)picolinamide]
2 | ≤ 50 | Cc1nc(-c2nc(NC3CCN(S(C)(=O)=O)CC3)ncc2C(F)(F)F)cn1-c1ccc(CN2CC(O)C2)cc1F [Example 355, 1-(3-Fluoro-4-(2-methyl-4-(2-((1-(methylsulfonyl)piperidin-4-yl)amino)-5-(trifluoromethyl)pyrimidin-4-yl)-1H-imidazol-1-yl)benzyl)azetidin-3-ol]
3 | ≤ 50 | CS(=O)(=O)N1CCC(Nc2ncc(C(F)(F)F)c(-c3cn(-c4ccc(CNCC(F)F)cc4Cl)cn3)n2)CC1 [Example 186, 4-(1-(2-Chloro-4-(((2,2-difluoroethyl)-amino)methyl)phenyl)-1H-imidazol-4-yl)-N-(1-(methylsulfonyl)-piperidin-4-yl)-5-(trifluoromethyl)-pyrimidin-2-amine]
4 | ≤ 50 | Cc1nc(CN2CC(C)C2)ccc1-n1cnc(-c2nc(NC3CCN(S(C)(=O)=O)CC3)ncc2C(F)(F)F)c1 [Example 264, 4-(1-(2-Methyl-6-((3-methylazetidin-1-yl)methyl)pyridin-3-yl)-1H-imidazol-4-yl)-N-(1-(methylsulfonyl)piperidin-4-yl)-5-(trifluoromethyl)pyrimidin-2-amine]
5 | ≤ 50 | CCN(CC)C1CCN(c2ccc(-n3cc(-c4nc(NC5CCN(S(C)(=O)=O)CC5)ncc4C(F)(F)F)nc3C)c(F)c2)CC1 [Example 413, 4-(1-(4-(4-(Diethylamino)piperidin-1-yl)-2-fluorophenyl)-2-methyl-1H-imidazol-4-yl)-N-(1-(methylsulfonyl)piperidin-4-yl)-5-(trifluoromethyl)pyrimidin-2-amine]
6 | ≤ 50 | CCN1CCN(Cc2cc(F)c(-n3cnc(-c4nc(N[C@@H]5CCN(S(C)(=O)=O)C[C@H]5F)ncc4C(F)(F)F)c3)c(F)c2)CC1 [Example 392, 4-(1-(4-((4-Ethylpiperazin-1-yl)methyl)-2,6-difluorophenyl)-1H-imidazol-4-yl)-N-((3R,4R)-3-fluoro-1-(methyslulfonyl)piperidin-4-yl)-5-(trifluoromethyl)pyrimidin-2-amine]
7 | ≤ 50 | CC(C)(O)C1CN(Cc2ccc(-n3cnc(-c4nc(NC5CCN(S(C)(=O)=O)CC5)ncc4C(F)(F)F)c3)c(Cl)c2)C1 [Example 203, 2-(1-(3-Chloro-4-(4-(2-((1-(methyl-sulfonyl)piperidin-4-yl)amino)-5-(trifluoromethyl)-pyrimidin-4-yl)-1H-imidazol-1-yl)-benzyl)azetidin-3-yl)propan-2-ol]
8 | ≤ 50 | CS(=O)(=O)N1CCC(Nc2ncc(C(F)(F)F)c(-c3cn(-c4cccc(C#N)c4CO)cn3)n2)CC1 [Example 232, 2-(Hydroxymethyl)-3-(4-(2-((1-(methylsulfonyl)piperidin-4-yl)amino)-5-(trifluoromethyl)pyrimidin-4-yl)-1H-imidazol-1-yl)benzonitrile]
9 | ≤ 50 | CS(=O)(=O)N1CCC(Nc2ncc(C(F)(F)F)c(-c3cn(-c4ccc(C#N)nc4CO)cn3)n2)CC1 [Example 236, 6-(Hydroxymethyl)-5-(4-(2-((1-(methylsulfonyl)piperidin-4-yl)amino)-5-(trifluoromethyl)pyrimidin-4-yl)-1H-imidazol-1-yl)picolinonitrile]
10 | ≤ 50 | CNC(C)c1ccc(-n2cnc(-c3nc(NC4CCN(S(C)(=O)=O)CC4)ncc3C(F)(F)F)c2)c(Cl)c1 (single isomer, unassigned) [Example 276, 4-(1-(2-Chloro-4-(1-(methylamino)ethyl)phenyl)-1H-imidazol-4-yl)-N-(1-(methylsulfonyl)piperidin-4-yl)-5-(trifluoromethyl)pyrimidin-2-amine]
11 | ≤ 50 | CS(=O)(=O)N1CCC(Nc2ncc(C(F)(F)F)c(-c3cn(-c4cccc(C(O)C5CC5)c4Cl)cn3)n2)CC1 (stereo not shown) [Example 86, (2-chloro-3-(4-(2-((1-(methylsulfonyl)piperidin-4-yl)amino)-5-(trifluoromethyl)pyrimidin-4-yl)-1H-imidazol-1-yl)phenyl)(cyclopropyl)methanol]
12 | ≤ 50 | CNCc1ccc(-n2cnc(-c3nc(NC4CCN(S(C)(=O)=O)CC4)ncc3C(F)(F)F)c2)c(C(F)(F)F)c1 [Example 254, 4-(1-(4-((Methylamino)methyl)-2-(trifluoromethyl)phenyl)-1H-imidazol-4-yl)-N-(1-(methylsulfonyl)piperidin-4-yl)-5-(trifluoromethyl)pyrimidin-2-amine]
13 | ≤ 50 | Cc1nc(-c2nc(NC3CCN(S(C)(=O)=O)CC3)ncc2C(F)(F)F)cn1-c1ccc(N2CCC(N(C)C)CC2)cc1F [Example 101, 4-(1-(4-(4-(Dimethylamino)piperidin-1-yl)-2-fluorophenyl)-2-methyl-1H-imidazol-4-yl)-N-(1-(methylsulfonyl)piperidin-4-yl)-5-(trifluoromethyl)pyrimidin-2-amine]
14 | ≤ 50 | CCNCCc1cccc(-n2cnc(-c3nc(NC4CCN(S(C)(=O)=O)CC4)ncc3C(F)(F)F)c2)c1Cl [Example 466, 4-(1-(2-Chloro-3-(2-(ethylamino)ethyl)phenyl)-1H-imidazol-4-yl)-N-(1-(methylsulfonyl)piperidin-4-yl)-5-(trifluoromethyl)pyrimidin-2-amine]
15 | ≤ 50 | CNCc1cccc(-n2cnc(-c3nc(NC4CCN(S(C)(=O)=O)CC4)ncc3C(F)(F)F)c2)c1C(F)(F)F [Example 378, 4-(1-(3-((Methylamino)methyl)-2-(trifluoromethyl)phenyl)-1H-imidazol-4-yl)-N-(1-(methylsulfonyl)piperidin-4-yl)-5-(trifluoromethyl)pyrimidin-2-amine]
16 | ≤ 50 | CCN(CC)Cc1ccc(-n2cc(-c3nc(NC4CCN(S(C)(=O)=O)CC4)ncc3C(F)(F)F)nc2C)c(F)c1 [Example 357, 4-(1-(4-((Diethylamino)methyl)-2-fluorophenyl)-2-methyl-1H-imidazol-4-yl)-N-(1-(methylsulfonyl)piperidin-4-yl)-5-(trifluoromethyl)pyrimidin-2-amine]
17 | ≤ 50 | CCS(=O)(=O)N1CCC(Nc2ncc(C(F)(F)F)c(-c3cn(-c4ccc(CN5CCC5)cc4Cl)cn3)n2)CC1 [Example 229, 4-(1-(4-(Azetidin-1-ylmethyl)-2-chlorophenyl)-1H-imidazol-4-yl)-N-(1-(ethylsulfonyl)piperidin-4-yl)-5-(trifluoromethyl)pyrimidin-2-amine]
18 | ≤ 50 | CCN1CCN(Cc2cc(F)c(-n3cnc(-c4nc(NC5CCN(S(C)(=O)=O)CC5)ncc4C(F)(F)F)c3)c(Cl)c2)CC1 [Example 396, 4-(1-(2-Chloro-4-((4-ethylpiperazin-1-yl)methyll)-6-fluorophenyl)-1H-imidazol-4-yl)-N-(1-(methylsulfonyl)piperidin-4-yl)-5-(trifluoromethyl)pyrimidin-2-amine]
19 | ≤ 50 | Cc1nc(-c2nc(N[C@H]3CCN(S(C)(=O)=O)C[C@H]3F)ncc2C(F)(F)F)cn1-c1ccc(CN(C)C)cc1F [Example 286, 4-(1-(4-((Dimethylamino)methyl)-2-fluorophenyl)-2-methyl-1H-imidazol-4-yl)-N-((3R,4S)-3-fluoro-1-(methylsulfonyl)piperidin-4-yl)-5-(trifluoromethyl)pyrimidin-2-amine]
20 | ≤ 50 | Cc1nc(-c2nc(NC3CCN(S(C)(=O)=O)CC3)ncc2C(F)(F)F)cn1-c1ccc(CN2CC(C)(O)C2)cc1F [Example 354, 1-(3-Fluoro-4-(2-methyl-4-(2-((1-(methylsulfonyl)piperidin-4-yl)amino)-5-(trifluoromethyl)pyrimidin-4-yl)-1H-imidazol-1-yl)benzyl)-3-methylazetidin-3-ol]
21 | ≤ 50 | CS(=O)(=O)N1CC[C@H](Nc2ncc(C(F)(F)F)c(-c3cn(-c4ccc(C(F)(F)F)cc4C#N)cn3)n2)[C@H](F)C1 [Example 68, 2-(4-(2-(((3R,4S)-3-Fluoro-1-(methylsulfonyl)piperidin-4-yl)amino)-5-(trifluoromethyl)pyrimidin-4-yl)-1H-imidazol-1-yl)-5-(trifluoromethyl)benzonitrile]
22 | ≤ 50 | CC1(C)CN(Cc2ccc(-n3cnc(-c4nc(NC5CCN(S(C)(=O)=O)CC5)ncc4C(F)(F)F)c3)c(Cl)c2)C1 [Example 200, 4-(1-(2-Chloro-4-((3,3-dimethyl-azetidin-1-yl)methyl)-phenyl)-1H-imidazol-4-yl)-N-(1-(methyl-sulfonyl)piperidin-4-yl)-5-(trifluoromethyl)-pyrimidin-2-amine]
23 | ≤ 50 | CS(=O)(=O)N1CCC(Nc2ncc(C(F)(F)F)c(-c3cn(-c4ccc(Cn5ccnn5)cc4Cl)cn3)n2)CC1 [Example 242, 4-(1-(4-((1H-1,2,3-Triazol-1-yl)methyl)-2-chlorophenyl)-1H-imidazol-4-yl)-N-(1-(methylsulfonyl)piperidin-4-yl)-5-(trifluoromethyl)pyrimidin-2-amine]
24 | ≤ 50 | CS(=O)(=O)N1CCC(Nc2ncc(C(F)(F)F)c(-c3cn(-c4ccc(CN5CCN6CCCC6C5)cc4Cl)cn3)n2)CC1 (stereo not shown) [Example 212, 4-(1-(2-Chloro-4-((hexahydropyrrolo-[1,2-a]pyrazin-2(1H)-yl)methyl)phenyl)-1H-imidazol-4-yl)-N-(1-(methylsulfonyl)-piperidin-4-yl)-5-(trifluoromethyl)-pyrimidin-2-amine]
25 | ≤ 50 | CS(=O)(=O)N1CC[C@H](Nc2ncc(C(F)(F)F)c(-c3cn(-c4cccc(C#N)c4C(F)(F)F)cn3)n2)[C@H](F)C1 [Example 69, 3-(4-(2-(((3R,4S)-3-Fluoro-1-(methylsulfonyl)piperidin-4-yl)amino)-5-(trifluoromethyl)pyrimidin-4-yl)-1H-imidazol-1-yl)-2-(trifluoromethyl)benzonitrile]
